According to ChEMBL document CHEMBL1201862, “PubChem BioAssay data set” (2004):
Active and inactive are the calls of the source.

Tests used:
[1] = biological target: Peroxisome proliferator-activated receptor gamma/Nuclear receptor coactivator 2 (Homo sapiens, UniProt P37231); assay type: functional;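 note: agonist potency for raising coactivator recruitment to the receptor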
[2] = biological target: Peroxisome proliferator-activated receptor gamma/Nuclear receptor coactivator 1 (Homo sapiens, UniProt P37231); assay type: functional;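 note: agonist potency as compounds enhance coactivator SRC-1 recruitment to PPARgamma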
[3] = biological target: Peroxisome proliferator-activated receptor gamma/Nuclear receptor coactivator 3 (Homo sapiens, UniProt P37231); assay type: functional;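 note: agonist potency for raising coactivator recruitment to the receptor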
[4] = biological target: Lysosomal acid glucosylceramidase (Homo sapiens, UniProt P04062); assay: Dose response cell-based high throughput screening assay to identify enhancers of beta-glucosidase activity. [Related pubchem assays: 784 ]; assay type: functional
[5] = A cytotoxicity screen of small molecule inhibitors of the PhoP region in Salmonella typhi identified in the primary screen. [Related pubchem assays: 1850, 1864, 1985 ]; assay type: functional
[6] = biological target: Protein Rev (Human immunodeficiency virus type 1 group M subtype B (isolate WMJ22)(HIV-1), UniProt P05866); assay: inhibitors of Rev protein–RRE RNA complex – biochemical, protein-RNA interaction, dose response (AID 842); design: species or system Human immunodeficiency virus 1
[7] = test system: HeLa; assay: Cytotoxicity counterscreen assay for transcriptional activators of heat shock protein 70 (Hsp70). [Related pubchem assays: 1203, 1252 ]; assay type: functional; conditions: Homo sapiens;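 note: cells exposed to compound for 16 hours before readout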
[8] = biological target: Beta-galactosidase (Escherichia coli, UniProt Q8VNN2); assay: PubChem AID 485352; assay type: functional
[9] = biological target: G-protein coupled receptor 55 (Homo sapiens, UniProt Q9Y2T6); assay: inhibition of LPI-stimulated GPR55 beta-arrestin translocation – imaging, U2OS, beta-arrestin-GFP, LPI agonist, primary screen (AID 2013); assay type: functional;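 note: antagonist potency measured as reduced agonist-driven arrestin aggregation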
[10] = Luminescence-based dose response cell-based high throughput screening assay for cytotoxic compounds using the IEC-6 intestinal epithelial cell line. [Related pubchem assays: 1858 (Summary AID.), 1825 (Counterscreen.), 1907 (Confirmation screen.)]; assay type: functional
[11] = biological target: T1, Type-1 angiotensin II receptor (Homo sapiens, UniProt P30556); assay: antagonism of angiotensin II type 1 receptor – cell-based, uHTS hits, selectivity assay for APJ receptor antagonist project, dose response (AID 463214); assay type: functional;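 note: antagonist potency against angiotensin II stimulated AT1 response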
T1 sequence (P30556 whole entry): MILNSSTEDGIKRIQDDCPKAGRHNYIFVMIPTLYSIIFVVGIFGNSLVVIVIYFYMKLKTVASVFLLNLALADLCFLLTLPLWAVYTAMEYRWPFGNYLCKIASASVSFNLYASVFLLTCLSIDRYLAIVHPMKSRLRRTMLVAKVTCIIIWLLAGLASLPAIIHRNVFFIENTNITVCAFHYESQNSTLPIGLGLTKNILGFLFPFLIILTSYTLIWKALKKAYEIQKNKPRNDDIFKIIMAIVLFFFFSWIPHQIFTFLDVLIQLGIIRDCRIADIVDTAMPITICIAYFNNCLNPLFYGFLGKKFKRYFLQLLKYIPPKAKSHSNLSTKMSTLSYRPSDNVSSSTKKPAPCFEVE

[12] = HEK-293T viability loss after treatment – luminescence, T-cell screen hits, cytotoxicity control for TCR NF-kB inhibitor project, dose response (AID 489026); assay type: functional, cell-based;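 note: cells exposed to compound about 14 hours before the viability readout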
[13] = biological target: T2, Heat shock 70 kDa protein 1A (Homo sapiens, UniProt P0DMV8); assay: small-molecule inhibition of Hsp70 – biochemical, TR-FRET (AID 786)
[14] = biological target: T2, Heat shock 70 kDa protein 1A; assay: small molecules displacing fluorescent ligand from Hsp70 – biochemical, fluorescence polarization, primary screen (AID 583)
[15] = biological target: Acyl-homoserine lactone acylase PvdQ (Pseudomonas aeruginosa (strain LESB58), UniProt Q9I194); assay: PvdQ acylase enzyme activity blockers – biochemical, fluorescence, plate reader and imaging, cherry-picks, dose response (AID 493231)
Acyl-homoserine lactone acylase PvdQ, sequence (Q9I194 24-193 limits assumed): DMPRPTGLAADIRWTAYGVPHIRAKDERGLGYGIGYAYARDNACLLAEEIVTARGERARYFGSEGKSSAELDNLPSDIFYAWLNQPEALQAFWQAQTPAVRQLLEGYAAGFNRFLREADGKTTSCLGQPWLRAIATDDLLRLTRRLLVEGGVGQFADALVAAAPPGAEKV
Acyl-homoserine lactone acylase PvdQ, sequence (Q9I194 217-762 limits assumed): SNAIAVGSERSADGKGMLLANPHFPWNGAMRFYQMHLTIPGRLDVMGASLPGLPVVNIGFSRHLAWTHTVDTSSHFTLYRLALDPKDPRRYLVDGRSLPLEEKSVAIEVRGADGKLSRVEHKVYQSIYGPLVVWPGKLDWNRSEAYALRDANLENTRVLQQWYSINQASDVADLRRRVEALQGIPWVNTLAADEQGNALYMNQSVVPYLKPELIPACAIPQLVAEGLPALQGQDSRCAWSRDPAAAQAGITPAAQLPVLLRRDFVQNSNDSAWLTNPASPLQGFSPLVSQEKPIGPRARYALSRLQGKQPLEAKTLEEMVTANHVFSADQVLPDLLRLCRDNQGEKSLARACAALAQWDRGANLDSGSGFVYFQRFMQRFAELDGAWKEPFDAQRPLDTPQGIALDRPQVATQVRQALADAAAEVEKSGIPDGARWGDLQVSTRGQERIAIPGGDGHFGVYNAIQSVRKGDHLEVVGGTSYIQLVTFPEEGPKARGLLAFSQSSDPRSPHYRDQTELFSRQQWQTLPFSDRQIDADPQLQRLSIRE

T2 sequence (P0DMV8 whole entry): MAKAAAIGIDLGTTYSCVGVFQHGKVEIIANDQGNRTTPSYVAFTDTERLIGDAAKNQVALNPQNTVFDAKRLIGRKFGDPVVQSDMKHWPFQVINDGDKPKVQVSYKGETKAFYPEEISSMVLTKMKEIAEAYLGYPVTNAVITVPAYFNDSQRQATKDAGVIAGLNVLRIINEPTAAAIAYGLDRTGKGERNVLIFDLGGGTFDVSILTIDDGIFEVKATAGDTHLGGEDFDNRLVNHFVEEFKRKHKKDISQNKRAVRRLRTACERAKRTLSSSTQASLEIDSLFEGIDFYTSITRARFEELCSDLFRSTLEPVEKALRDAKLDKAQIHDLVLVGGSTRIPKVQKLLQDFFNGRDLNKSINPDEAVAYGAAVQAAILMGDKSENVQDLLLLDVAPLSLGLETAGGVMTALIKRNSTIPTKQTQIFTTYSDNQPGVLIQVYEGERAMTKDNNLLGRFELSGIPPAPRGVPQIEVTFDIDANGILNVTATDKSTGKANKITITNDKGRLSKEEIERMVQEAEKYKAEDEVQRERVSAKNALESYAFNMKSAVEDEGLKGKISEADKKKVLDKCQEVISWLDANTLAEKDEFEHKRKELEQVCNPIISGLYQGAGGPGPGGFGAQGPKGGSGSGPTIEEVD
Beta-galactosidase, sequence (Q8VNN2 whole entry): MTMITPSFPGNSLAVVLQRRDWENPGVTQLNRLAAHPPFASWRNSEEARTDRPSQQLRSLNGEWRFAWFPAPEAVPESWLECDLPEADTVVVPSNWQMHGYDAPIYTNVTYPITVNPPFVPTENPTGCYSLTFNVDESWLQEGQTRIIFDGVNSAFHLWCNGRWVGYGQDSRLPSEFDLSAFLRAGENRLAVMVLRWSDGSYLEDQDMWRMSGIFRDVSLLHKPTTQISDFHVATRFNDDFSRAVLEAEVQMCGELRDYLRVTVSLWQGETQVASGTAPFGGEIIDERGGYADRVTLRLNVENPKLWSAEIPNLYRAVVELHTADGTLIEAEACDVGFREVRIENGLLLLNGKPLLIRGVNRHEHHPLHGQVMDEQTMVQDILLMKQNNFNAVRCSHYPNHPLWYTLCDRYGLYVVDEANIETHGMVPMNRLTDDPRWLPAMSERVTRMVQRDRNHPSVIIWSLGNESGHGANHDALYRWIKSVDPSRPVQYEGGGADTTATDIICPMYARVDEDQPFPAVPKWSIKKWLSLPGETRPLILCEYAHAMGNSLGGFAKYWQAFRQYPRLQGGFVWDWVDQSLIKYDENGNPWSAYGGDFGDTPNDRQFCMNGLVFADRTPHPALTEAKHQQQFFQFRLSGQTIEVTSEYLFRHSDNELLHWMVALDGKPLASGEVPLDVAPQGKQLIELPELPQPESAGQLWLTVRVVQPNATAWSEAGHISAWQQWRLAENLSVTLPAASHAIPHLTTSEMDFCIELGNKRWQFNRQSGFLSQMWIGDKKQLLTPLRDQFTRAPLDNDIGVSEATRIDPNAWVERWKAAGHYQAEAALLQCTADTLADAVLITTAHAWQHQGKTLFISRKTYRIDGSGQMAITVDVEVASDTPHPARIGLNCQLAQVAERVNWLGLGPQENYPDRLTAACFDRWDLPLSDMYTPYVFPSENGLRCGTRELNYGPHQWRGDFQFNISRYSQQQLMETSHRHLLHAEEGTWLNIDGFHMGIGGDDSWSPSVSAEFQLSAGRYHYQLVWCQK
Peroxisome proliferator-activated receptor gamma/Nuclear receptor coactivator 1, sequence (P37231 whole entry): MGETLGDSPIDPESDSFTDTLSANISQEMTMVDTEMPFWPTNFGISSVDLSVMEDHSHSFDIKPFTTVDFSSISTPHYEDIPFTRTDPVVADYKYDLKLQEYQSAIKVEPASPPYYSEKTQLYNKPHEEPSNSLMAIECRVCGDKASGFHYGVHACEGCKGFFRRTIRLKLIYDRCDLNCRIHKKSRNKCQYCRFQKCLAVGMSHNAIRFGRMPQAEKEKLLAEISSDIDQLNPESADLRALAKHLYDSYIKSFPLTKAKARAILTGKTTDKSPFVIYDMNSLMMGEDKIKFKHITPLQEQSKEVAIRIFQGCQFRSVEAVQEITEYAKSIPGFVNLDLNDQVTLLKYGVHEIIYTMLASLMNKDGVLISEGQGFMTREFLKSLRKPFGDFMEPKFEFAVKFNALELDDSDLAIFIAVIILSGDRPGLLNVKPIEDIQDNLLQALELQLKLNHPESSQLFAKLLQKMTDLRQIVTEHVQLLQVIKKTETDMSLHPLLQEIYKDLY
Peroxisome proliferator-activated receptor gamma/Nuclear receptor coactivator 1, sequence (Q15788 whole entry, further chain): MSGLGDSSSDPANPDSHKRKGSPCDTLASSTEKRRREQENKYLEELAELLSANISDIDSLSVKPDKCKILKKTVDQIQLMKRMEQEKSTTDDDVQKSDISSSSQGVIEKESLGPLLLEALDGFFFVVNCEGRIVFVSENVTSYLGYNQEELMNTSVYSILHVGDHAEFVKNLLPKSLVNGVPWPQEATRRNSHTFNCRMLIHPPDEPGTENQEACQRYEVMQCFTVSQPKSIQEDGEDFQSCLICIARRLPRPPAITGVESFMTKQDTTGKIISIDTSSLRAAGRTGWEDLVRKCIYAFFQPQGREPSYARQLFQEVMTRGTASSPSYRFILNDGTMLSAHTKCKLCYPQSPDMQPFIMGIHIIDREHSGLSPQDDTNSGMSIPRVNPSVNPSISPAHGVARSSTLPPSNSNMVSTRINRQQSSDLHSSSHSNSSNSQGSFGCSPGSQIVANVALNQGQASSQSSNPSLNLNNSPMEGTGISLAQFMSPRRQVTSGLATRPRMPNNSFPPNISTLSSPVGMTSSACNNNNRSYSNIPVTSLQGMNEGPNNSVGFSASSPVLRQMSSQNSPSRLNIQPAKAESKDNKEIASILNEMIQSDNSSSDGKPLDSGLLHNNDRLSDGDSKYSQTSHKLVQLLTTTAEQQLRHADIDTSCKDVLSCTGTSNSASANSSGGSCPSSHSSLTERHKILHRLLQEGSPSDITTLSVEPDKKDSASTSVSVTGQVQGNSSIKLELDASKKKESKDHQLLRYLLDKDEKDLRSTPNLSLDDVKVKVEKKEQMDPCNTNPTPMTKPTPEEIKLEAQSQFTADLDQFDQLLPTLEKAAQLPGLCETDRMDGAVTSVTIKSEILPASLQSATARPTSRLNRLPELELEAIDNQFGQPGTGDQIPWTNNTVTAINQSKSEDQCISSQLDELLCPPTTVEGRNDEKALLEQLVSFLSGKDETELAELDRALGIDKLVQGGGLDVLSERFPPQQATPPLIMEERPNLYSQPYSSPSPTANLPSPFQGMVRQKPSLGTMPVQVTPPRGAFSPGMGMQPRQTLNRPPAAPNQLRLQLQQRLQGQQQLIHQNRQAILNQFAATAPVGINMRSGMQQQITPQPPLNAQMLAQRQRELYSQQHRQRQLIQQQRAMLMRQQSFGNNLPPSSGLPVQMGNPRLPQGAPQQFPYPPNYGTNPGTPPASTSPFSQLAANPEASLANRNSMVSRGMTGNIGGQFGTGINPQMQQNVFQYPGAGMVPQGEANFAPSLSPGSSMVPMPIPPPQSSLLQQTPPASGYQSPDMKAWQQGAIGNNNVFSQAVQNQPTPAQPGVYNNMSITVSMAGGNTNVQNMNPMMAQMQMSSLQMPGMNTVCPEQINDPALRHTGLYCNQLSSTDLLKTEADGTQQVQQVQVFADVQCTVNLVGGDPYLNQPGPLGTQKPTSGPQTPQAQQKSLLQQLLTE
Lysosomal acid glucosylceramidase, sequence (P04062 whole entry): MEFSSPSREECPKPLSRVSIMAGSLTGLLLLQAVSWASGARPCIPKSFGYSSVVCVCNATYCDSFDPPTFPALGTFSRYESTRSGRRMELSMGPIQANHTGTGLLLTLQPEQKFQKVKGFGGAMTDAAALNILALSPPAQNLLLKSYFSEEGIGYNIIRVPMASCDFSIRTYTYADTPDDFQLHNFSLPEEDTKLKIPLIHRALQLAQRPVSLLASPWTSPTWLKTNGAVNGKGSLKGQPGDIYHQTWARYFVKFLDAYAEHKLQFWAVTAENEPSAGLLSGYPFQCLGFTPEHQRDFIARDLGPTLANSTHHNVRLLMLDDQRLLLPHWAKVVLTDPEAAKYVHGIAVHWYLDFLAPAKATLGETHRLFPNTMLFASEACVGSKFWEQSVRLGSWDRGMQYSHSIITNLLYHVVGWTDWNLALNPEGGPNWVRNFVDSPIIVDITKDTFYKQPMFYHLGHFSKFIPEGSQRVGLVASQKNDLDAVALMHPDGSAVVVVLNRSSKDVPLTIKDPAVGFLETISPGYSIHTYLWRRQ
Protein Rev, sequence (P05866 whole entry): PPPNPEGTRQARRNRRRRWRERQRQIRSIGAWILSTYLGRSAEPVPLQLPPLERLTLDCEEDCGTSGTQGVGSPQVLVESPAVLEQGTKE

SMILES: O=C(CSc1ccc2nnc(-c3ccccn3)n2n1)NCc1ccc2c(c1)OCO2
- EC50 [1]: > 79.4 µM (not active)
- EC50 [2]: > 79.4 µM (not active)
- EC50 [3]: > 79.4 µM (not active)

SMILES: Cc1ccc(-n2c(=O)c(C#N)cc3c(=O)n4ccccc4nc32)cc1
- EC50 [4]: > 50 µM (not active)

SMILES: CC(C)(C)n1nc2c(c1NC(=O)c1ccccc1)CS(=O)(=O)C2
- EC50 [5]: > 50 µM (active)

SMILES: O=C(CN1C2=NCCN2c2ccccc21)c1ccc(Br)cc1
- IC50 [6]: > 79.4 µM (not active)

SMILES: COc1ccc(NC(=O)/C(Cl)=C(/Cl)[S+]([O-])Cc2ccccc2Cl)cn1 (stereo not given)
- CC50 [7]: 1.43 µM (active)
- EC50 [8]: > 40 µM (inactive)
- IC50 [9]: 3.25 µM (active)
- IC50 [10]: 1.36 µM (active)
- IC50 [11]: 4.54 µM (active)
- IC50 [12]: 25.3 µM (inactive)

SMILES: COCCCNC(=O)CC(NS(=O)(=O)c1ccc(C)cc1)c1ccco1 (stereo not given)
- IC50 [13]: > 100 µM (not active)
- IC50 [14]: > 100 µM (not active)

SMILES: Clc1ccc2scc(CN3CCCC3)c2c1
- AC50 [15]: 2.66 µM (active)
